Reference: patent US5401760A, “Heterocyclic compounds” (Ono Pharmaceutical Co., Ltd., priority 1988, dated 1995)
Where a SMILES comes first, the peptide text is derived from it.

target: T1, prolyl endopeptidase (Bos taurus, UniProt Q9XTA2); assay: Prolyl endopeptidase inhibitory activity in vitro; format: biochemical; conditions: enzyme purified from bovine brain, pH 7.5, 37° C., substrate N-benzyloxycarbonyl-glycyl-prolyl-p-nitroanilide, read-out: Concentration for 50% inhibition IC50
T1 construct: prolyl endopeptidase which was purified from bovine brain; from tissue; host or cells: bovine brain (purified enzyme)
Experimental: For example, in a standard laboratory test, results in the following were given.
Prolyl endopeptidase inhibitory activity in vitro
Inhibitory activity of prolyl endopeptidase in vitro was measured by the following test system.
A mixed solution of 20 mM tris-HCl buffer (pH 7.5; 935 μl; containing 10 mM EDTA and 10 mM mercaptoethanol), a solution of a compound of the present invention in DMSO (10 μl) and a solution of prolyl endopeptidase which was purified from bovine brain (0.13 unit ml; prepared by the method described in J. Biochem., 94, 1179 (1983) ) in tris-HCl buffer (15 μl) was preincubated for 15 mins at 37° C.
To the solution, 5 mM of N-benzyloxycarbonyl-glycyl-prolyl-p-nitroanilide (40 μl) in a mixture of 40% dioxane-60% water was added. The solution was incubated for 1 min at the same temperature.
Optical absorption (a1) at 405 nm of the solution, and optical absorption (a2) at 405 nm of the solution after more 30 mins' incubation at 37° C. were measured.
Optical absorptions (b1 and b2) of the solutions using DMSO instead of the solution of the compound of the present invention were also measured.
Inhibitory ratio was calculated by the following expression and IC50 (required concentration for 50% inhibition) was obtained (See Protein, Nucleic acid and Enzyme 25(6), 513, 1980.). [formula] Toxicity

T1 sequence (Q9XTA2 whole entry): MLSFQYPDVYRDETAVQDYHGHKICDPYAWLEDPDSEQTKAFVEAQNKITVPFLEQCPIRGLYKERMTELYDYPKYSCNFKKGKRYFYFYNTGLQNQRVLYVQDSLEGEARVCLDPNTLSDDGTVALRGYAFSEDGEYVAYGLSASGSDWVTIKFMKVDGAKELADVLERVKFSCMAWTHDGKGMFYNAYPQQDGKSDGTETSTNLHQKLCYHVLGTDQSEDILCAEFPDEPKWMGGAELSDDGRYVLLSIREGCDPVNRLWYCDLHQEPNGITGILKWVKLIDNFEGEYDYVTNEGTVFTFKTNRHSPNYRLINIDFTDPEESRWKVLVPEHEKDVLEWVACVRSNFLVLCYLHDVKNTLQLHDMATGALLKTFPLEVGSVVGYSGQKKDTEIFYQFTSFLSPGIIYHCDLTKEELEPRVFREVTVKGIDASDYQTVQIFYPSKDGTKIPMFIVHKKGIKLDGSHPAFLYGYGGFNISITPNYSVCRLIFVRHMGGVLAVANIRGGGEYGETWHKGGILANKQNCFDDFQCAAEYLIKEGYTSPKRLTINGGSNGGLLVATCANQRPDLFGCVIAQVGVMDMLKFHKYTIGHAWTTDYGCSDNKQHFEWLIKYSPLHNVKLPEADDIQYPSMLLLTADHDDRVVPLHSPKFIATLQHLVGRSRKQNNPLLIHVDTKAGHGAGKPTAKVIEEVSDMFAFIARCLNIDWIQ

Point of comparison: `CN(Cc1ccccc1)C(=O)CCC(=O)N1CCC[C@H]1C(=O)C(=O)OCc1ccccc1` [Example 7, 2-[(2S)-1-[3-(N-benzyl-N-methylcarbamoyl)propanoyl]pyrrolidin-2-yl]-2-oxoacetic acid benzyl ester], IC50 1.2 nM. Against it:
- CCOC(=O)C(=O)[C@@H]1CCCN1C(=O)C(CCCCCc1ccccc1)C(C)C (mixture of isomers) [2 (h), 2-[(2S)-1-[(2RS)-2-isopropyl-7-phenylheptanoyl]pyrrolidin-2-yl]-2-oxoacetic acid ethyl ester] — 14-fold higher, 17 nM
- CCC(O)[C@@H]1CSCN1C(=O)C1CCCCN1C(=O)CCc1ccccc1 (mixture of isomers) [15 (a), (1RS)-1-[(4R)-3-[1-(3-phenylpropanoyl)piperidin-2-ylcarbonyl]thiazolidin-4-yl]propan-1-ol] — 100-fold higher, 120 nM
- CN(Cc1ccccc1)C(=O)CCC(=O)N1CCC[C@H]1C(O)C(=O)OCc1ccccc1 (mixture of isomers) [Example 6, (2RS)-2-[(2S)-1-[3-(N-benzyl-N-methylcarbamoyl)propanoyl]pyrrolidin-2-yl]-2-hydroxyacetic acid benzyl ester] — 2500-fold higher, 3000 nM
- CCOC(=O)C(F)(F)C(O)[C@@H]1CCCN1C(=O)CCC(=O)N(C)Cc1ccccc1 (mixture of isomers) [Example 12, (3RS)-3-[(2S)-1-[3-(N-benzyl-N-methylcarbamoyl)propanoyl]pyrrolidin-2-yl]-3-hydroxy-2,2-difluoropropionic acid ethyl ester] — 58000-fold higher, 69000 nM
- CCC(O)[C@@H]1CCCN1C(=O)CCC(=O)N(C)Cc1ccccc1 (mixture of isomers) [Example 15, (1RS)-1-[(2S)-1-[3-(N-benzyl-N-methylcarbamoyl)propanoyl]pyrrolidin-2-yl]-propan-1-ol] — 1200-fold higher, 1500 nM
- CCOC(=O)C(=O)[C@@H]1CCCN1C(=O)CCC(=O)NC1c2ccccc2-c2ccccc21 [2 (b), 2-[(2S)-1-[3-[N-(9-fluorenyl)carbamoyl]propanoyl]pyrrolidin-2-yl]-2-oxoacetic acid ethyl ester] — 1.5-fold higher, 1.8 nM
- CCOC(=O)C(=O)[C@@H]1CCCN1C(=O)CCC(=O)N(Cc1ccc(C(F)(F)F)cc1)c1ccccc1 [2 (d), 2-[(2S)-1-[3-[N-(4-trifluoromethylphenylmethyl)-N-phenylcarbamoyl]propanoyl]pyrrolidin-2-yl]-2-oxoacetic acid ethyl] — within 1.5-fold, 0.85 nM
- CCOC(=O)C(=O)[C@@H]1CCCN1C(=O)CCC(=O)N(Cc1ccccc1)c1ccccc1 [2 (g), 2-[(2S)-1-[3-(N-benzyl-N-phenylcarbamoyl)propanoyl]pyrrolidin-2-yl]-2-oxoacetic acid ethyl ester] — within 1.5-fold, 1.7 nM
- CCOC(=O)C(=O)[C@@H]1CCCN1C(=O)CCC(=O)NCc1ccc(Cl)cc1Cl [2 (l), 2-[(2S)-1-[3-[N-(2,4-dichloro-phenylmethyl)carbamoyl]propanoyl]pyrrolidin-2-yl]-2-oxoacetic acid ethyl ester] — 1.5-fold higher, 1.8 nM
- O=C(CCCc1ccccc1)N1CSC[C@H]1C(=O)N1CSC[C@H]1C(O)c1ccccc1 (stereo partly drawn) [17 (a), (1RS)-1-phenyl-1-[(4R)-3-[(4R)-3-(4-phenylbutanoly)thiazolidin-4-ylcarbonyl]thiazolidin-4-yl]methanol] — 150-fold higher, 180 nM
- CCOC(=O)C(=O)[C@@H]1CCCN1C(=O)CCC(=O)N(C)Cc1ccccc1 [Example 2, 2-[(2S)-1-[3-(N-benzyl-N-methylcarbamoyl)propanoyl]pyrrolidin-2-yl]-2-oxoacetic acid ethyl ester] — 2.5-fold higher, 3 nM
- CN(Cc1ccccc1)C(=O)CCC(=O)N1CCC[C@H]1C(=O)C(F)(F)F [Example 9, 1-[(2S)-1-[3-(N-benzyl-N-methylcarbamoyl)propanoyl]pyrrolidin-2-yl]-2,2,2-trifluoroethan-1-one] — 19-fold higher, 23 nM
- CCOC(=O)C(F)(F)C(=O)[C@@H]1CCCN1C(=O)CCC(=O)N(C)Cc1ccccc1 [Example 13, 3-[(2S)-1-[3-(N-benzyl-N-methylcarbamoyl)propanoyl]pyrrolidin-2-yl]-3-oxo-2,2-difluoropropionic acid ethyl ester] — 83-fold higher, 100 nM
- CN(Cc1ccccc1)C(=O)CCC(=O)N1CCC[C@H]1C1OCCO1 [Example 19, 2-[(2S)-1-[3-(N-benzyl-N-methylcarbamoyl)propanoyl]pyrrolidin-2-yl]-1,3-dioxolane] — 12000-fold higher, 14000 nM

tested on: prolyl endopeptidase; assay: not given; conditions: literature, J. Neurochem., 41, 69 (1983); cited from earlier work

In the case of `O=C(NCC(=O)N1CCC[C@H]1C(=O)CCl)OCc1ccccc1` [N-benzyloxycarbonyl-glycyl-L-prolyl-chloromethane] (HELM PEPTIDE1{[O=C(OCc1ccccc1)[*:2]].G.P.[ClC[*:1]]}$$$$V2.0), the inhibit prolyl endopeptidase is given as “strongly inhibit”.
